Reference: US9238033B2, “Pharmaceutical composition containing KW-6002 and fluoxetine or paroxentine” (Kyowa Hakko Kirin Co., Ltd., priority 2003, dated 2016)
Where a name gives a salt, the structure may show the parent alone.

What was measured:
ICR male mice = assay: Mouse tail suspension method (animal model of depression); format: in vivo; conditions: for Duration of immobility (sec) Mean value ± Standard error: last 4 min of 6 min test, Not Significant (Student's t test); for Rate of change of duration of immobility to solvent control group (%): solvent control = 100%
Protocol: The test was carried out with reference to the method of Steru et al., [Psychopharmacol., 85, 367-370 (1985)], which is an animal model of depression.
Experiment was conducted using 10 ICR male mice (weighing 20 to 35 g, Nihon SLC Co., Ltd) per one group.
An acrylic or metallic bat was fixed horizontally such that height of about 60 cm from the floor face is provided.
The mouse was suspended at a site of about 2 cm from the tip of the tail, from the bar for a period of 6 minutes. Duration of immobility during the last 4 minutes of 6 minutes test was measured (significance test: Student's t test). For fixing the mouse, an adhesive tape was used.
(§1) The antidepressant drug and Compound (I) were suspended in distilled water for injection (manufactured by Otsuka Pharmaceutical Co., Ltd.) containing 0.5% MC (methyl cellulose), respectively, for use in the test. Time point of administration of the antidepressant drug was predetermined such that the peak of onset of activity by the antidepressant drug overlaps with the peak of onset of activity by Compound (I). According to the predetermined time, the suspension containing the antidepressant drug was orally administered to a group administered the antidepressant drug alone or a group administered the antidepressant drug and Compound (I) in combination (0.1 mL per 10 g of the mouse body weight). Further, the suspension containing Compound (I) was orally administered to the group administered the antidepressant drug and Compound (I) in combination, 1 hour before the test (0.1 mL per 1.0 g of the mouse body weight). A solution without containing a test compound [distilled water for injection (manufactured by Otsuka Pharmaceutical Co., Ltd.) containing 0.5% MC] and the suspension containing Compound (I) were orally administered to a solvent control group and to a group administered Compound (I) alone, 1 hour before the test, respectively (0.1 mL per 10 g of the mouse body weight).
(§2) Effect obtained by combining Compound (I) and the antidepressant drug was evaluated according to the following index.
The duration of Immobility in the solvent control group was assumed to be 100%, and each rate of change (%) of the duration of immobility in the above administration group to the duration of immobility in the solvent control group was calculated, and was compared. The duration of immobility in each administration group, and the rate of change (%) of the duration of immobility are shown in Table 2 and Table 3.

ddY male mice = assay: Forced swimming method in mice (animal model of depression); format: in vivo; conditions: for Duration of immobility (sec) Mean value ± Standard error: last 4 min of 6 min test, Not Significant (Dunnett test); for Rate of change of duration of immobility to solvent control group (%): solvent control = 100%
Protocol: The test was carried out with reference to the method of Porsolt et al., [Arch. Int. Pharmacodyn. Ther., 229, 327-336 (1977)], which is an animal model of depression.
Experiment was conducted using 10 ddY male mice (weighing 20 to 35 g, Nihon SLC Co., Ltd) per one group.
An acrylic transparent cylinder having a diameter of 10 cm and a height of 25 cm was filled with water having a temperature of about 24° C. Height from the bottom of the cylinder to the surface of the water was adjusted to be about 9 cm.
The mice were forced to swim individually for a period of 6 minutes, the total duration of immobility during the last 4 minutes of 6 minutes test was measured (significance test: Dunnett test).
as §1, with “10” for “1.0”
as §2
The duration of Immobility in the solvent control group was assumed to be 100%, and each rate of change (%) of the duration of, immobility in the above administration group to the duration of immobility in the solvent control group was calculated, and was compared. The duration of immobility in each administration group, and the rate of change (%) of the duration of immobility are shown in Table 1.

[1] = Table 2, paroxetine hydrochloride hydrate 2.50 mg/kg orally
[2] = Table 3, fluoxetine hydrochloride 10.00 mg/kg orally
[3] = Compound (I) 0.08 mg/kg orally 1 hour before test
[4] = Table 2, Compound (I) 0.04 mg/kg orally 1 hour before test
[5] = Table 3, Compound (I) 0.04 mg/kg orally 1 hour before test
[6] = Venlafaxine hydrochloride 5.00 mg/kg orally

Fc1ccc([C@@H]2CCNC[C@H]2COc2ccc3c(c2)OCO3)cc1 [Paroxetine hydrochloride hydrate]
Duration of immobility (sec) Mean value ± Standard error (ICR male mice; [1]): 79.6 ± 16.6 s
Rate of change of duration of immobility to solvent control group (%) (ICR male mice; [1]): −2%

CNCCC(Oc1ccc(C(F)(F)F)cc1)c1ccccc1 (stereo not drawn) [Fluoxetine hydrochloride]
Duration of immobility (sec) Mean value ± Standard error (ICR male mice; [2]): 85.7 ± 18.9 s
Rate of change of duration of immobility to solvent control group (%) (ICR male mice; [2]): −16%

CCn1c(=O)c2c(nc(/C=C/c3ccc(OC)c(OC)c3)n2C)n(CC)c1=O [Compound (I), (E)-8-(3,4-dimethoxystyryl)-1,3-diethyl-7-methyl-3,7-dihydro-1H-purine-2,6-dione]
Duration of immobility (sec) Mean value ± Standard error (ddY male mice; [3]): 155.6 ± 13.3 s
Rate of change of duration of immobility to solvent control group (%) (ddY male mice; [3]): −21%
Duration of immobility (sec) Mean value ± Standard error (ICR male mice; [4]): 70.1 ± 19.1 s
Rate of change of duration of immobility to solvent control group (%) (ICR male mice; [4]): −14%
Duration of immobility (sec) Mean value ± Standard error (ICR male mice; [5]): 87.9 ± 14.9 s
Rate of change of duration of immobility to solvent control group (%) (ICR male mice; [5]): −26%

COc1ccc(C(CN(C)C)C2(O)CCCCC2)cc1 (stereo not drawn) [Venlafaxine hydrochloride]
Duration of immobility (sec) Mean value ± Standard error (ddY male mice; [6]): 173.1 ± 20.7 s
Rate of change of duration of immobility to solvent control group (%) (ddY male mice; [6]): −12%
